# Data reported in PubChem BioAssay (NCI).
# Several values for one entry are separate records, joined by “and”; a condition that tells them apart may be missing. Equal entries are not always repeated.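 Following 48 hours of exposure in 96-well plates, responses at five concentrations were used to interpolate endpoints linearly. GI50 marks 50% less growth. TGI is the concentration that stops growth completely.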
# Test system: MDA-MB-468 breast
# Assay: NCI-60 cell line screen, 48 h
Compound,GI50,TGI
O=S(=O)(NCCCNc1cc(-c2cn(-c3ccccc3)nc2-c2cccc(O)c2)ccn1)c1ccc(F)cc1,2.55 µM,6.73 µM
N#Cc1c(NC(=O)c2ccccc2F)sc2c1CCCC2,5.65 µM,> 25 µM
CC1SC(c2ccc(Cl)cc2)N(CCc2cccs2)C1=O (stereo not drawn),1.47 µM,3.75 µM
COc1ccc(-c2c3c(N)c4c(nc3nc3c2c(C)nn3-c2ccccc2)CCCC4)cc1,2.33 µM,7.67 µM
Nc1nc(-c2ccc(Cl)cc2)nc2c1sc(=S)n2-c1ccccc1,4.06 µM,23.2 µM
N#CCNC(=O)c1ccc(-c2ccnc(Nc3ccc(N4CCOCC4)cc3)n2)cc1,2.69 µM and 2.35 µM,> 10 µM and 11.9 µM
COC(=O)c1cc([N+](=O)[O-])cc([N+](=O)[O-])c1Cl,1.22 µM,2.57 µM
Fc1ccc2nc(-c3nc(-c4ccccc4)n4ccccc34)[nH]c2c1,1.49 µM,4.02 µM
C[C@@H](NC(=O)c1ccc(F)cc1)c1ccc2c(c1)CCN2C(=O)C1CCOCC1,> 100 µM,> 100 µM
COc1ccc(/C=N\Nc2nc(SCC(C)C)nc(-c3ccc(OC)cc3)c2C#N)cc1,4.36 µM,28 µM
COCCOCCOCCOCCOC(=O)OC[n+]1ccc(NC(=NCCCCCCOc2ccc(Cl)cc2)NC#N)cc1,1.42 µM,9.99 µM
COc1cc(C(=O)/C=C/c2c(C(F)(F)F)nc3ccccn23)cc(OC)c1OC,2.12 µM,4.72 µM
O=C1/C(=C/c2ccccc2[N+](=O)[O-])COc2ccc(O)cc21,1.1 µM,4.56 µM
COc1ccc2c(c1)C(=O)c1c-2c(=O)n(CCCN(C)C)c2cc(OC)c(OC)cc12,1.43 µM,9.92 µM
O=c1[nH]c2ccccc2n1C1CCN(CCCC(c2ccc(F)cc2)c2ccc(F)cc2)CC1,1.32 µM and 1.5 µM,2.83 µM and 4.46 µM
O=S(=O)(NCCCNc1nccc(-c2c(-c3ccc(F)cc3)nc3sccn23)n1)c1ccc(F)cc1,4.55 µM,> 100 µM
C=CC[N+]1(CC)CCN=C1CCCCCCCCCCCCCCCCC (stereo not drawn),0.135 µM,0.538 µM
CC1(C)[C@H](O)[C@H](F)C[C@@]2(C)Oc3ccc(C(=O)Nc4ccc5c(c4)NC(=O)C54CCN(CCCCC#N)CC4)cc3C[C@H]12,0.0654 µM and 0.128 µM,10.7 µM
COC1=C(OC)C(=O)C(CCCCCCCCCCO)=C(C)C1=O,1.66 µM,3.76 µM
N#C/C(=C\c1cc2ccc(N3CCC3)cc2oc1=O)C(=O)N(CC(=O)O)CC(=O)O,> 100 µM,> 100 µM
N#Cc1cccc(Nc2ncc(-c3ccccc3)o2)c1,5.29 µM,> 25 µM
O=C(NCCCNc1cc(-c2cn(-c3ccccc3)nc2-c2cccc(O)c2)ccn1)Nc1cccc(C(F)(F)F)c1,1.61 µM,6.15 µM
S=C(NCc1ccc2c(c1)OCO2)N1CCN(c2ncnc3c2oc2ccccc23)CC1,0.456 µM,> 100 µM
Clc1nc(Cl)c2ncn(CCOCCn3cnc4c(Cl)nc(Cl)nc43)c2n1,0.179 µM,0.359 µM

Compound,GI50,TGI
COc1cc2c(cc1NC(=O)C(Cl)Cl)-c1ccc(NC(=O)C(Cl)Cl)cc1C2,0.28 µM,0.931 µM
COc1ccc(-c2[nH]c3ccccc3c2/C=C(\C#N)S(=O)(=O)c2ccccc2)cc1,–,1.93 µM
COc1ccc(S(=O)(=O)N2CCNCC2)cc1OC,> 100 µM,> 100 µM
CC1CCN(CCOc2ccc(CNc3ccc4nc(CCC5CCCCC5)[nH]c4c3)cc2)CC1,1.55 µM,3.25 µM
CCN(Cc1ccc(F)cc1)c1ccc(CO)c(C(F)(F)F)c1,0.165 µM,0.499 µM
COc1ccc(COc2cc3oc(=O)c4cc(C(C)O)ccc4c3cc2OC)cc1 (stereo not drawn),9.2 µM,> 100 µM
Clc1ccc([I+]c2ccc(Cl)cc2Cl)c(Cl)c1,1.33 µM,2.81 µM
Cn1c(C(=O)c2cccc3ccccc23)nc2ccccc21,5.92 µM,> 100 µM
C=CC(=O)N[C@@H](/C=C/C(=O)OCC)Cc1ccc(-c2cc(Cl)cc(Cl)c2)cc1,5.17 µM,48.1 µM
O=C(c1cc(Cc2n[nH]c(=O)c3ccccc23)ccc1F)N1CCN(C(=O)C2CC2)CC1,8.29 µM and 13.9 µM,> 100 µM
CCn1ccnc1C(=O)/C=C/c1ccc(CC(=O)Nc2ccc(F)cc2)cc1,1.99 µM,4.94 µM
COc1cc(-c2ncn(/C=C\c3nnco3)n2)cc(C(F)(F)F)c1,0.518 µM,3.96 µM
Cc1ccc(-n2c(-c3cc4c([nH]c5ccccc54)c(-c4cccc(O)c4)n3)n[nH]c2=S)cc1,0.28 µM,1.18 µM
c1ccc(C2CCCCC2)c(OCCCCCN2CCNCC2)c1,1.77 µM,4.2 µM
CC(=O)N(O)c1ccc(/C=C/c2ccccc2)cc1,0.0686 µM,0.932 µM
C[C@H]1CN(C2COC2)CCN1c1ccc(Nc2cc(-c3ccnc(N4CCn5c(cc6c5CC(C)(C)C6)C4=O)c3CO)cn(C)c2=O)nc1,22.9 µM,89.4 µM
COc1ccc(C2CC(c3ccc(N(C)C)cc3)=NN2c2ccc(S(N)(=O)=O)cc2)cc1 (stereo not drawn),3.28 µM,> 100 µM
C=C1C(=O)O[C@H]2[C@H]1CC/C(COC(=O)NCc1c[nH]c3ccc(F)cc13)=C\CC[C@@]1(C)O[C@@H]21,1.09 µM,2.91 µM
O=C1c2ccccc2C(=O)c2c1cc1c(c2[N+](=O)[O-])OCO1,1.64 µM,4.41 µM
Nc1nc2ccccc2c2c1S(=O)(=O)c1ccc(Cl)cc1C2=O,0.735 µM,2.15 µM
NCc1ccc(-c2nc(-c3ccc(Cl)c(O)c3)c(-c3ccncc3)[nH]2)cc1,> 12.2 µM,> 25 µM
CC(C)N(Cc1ccc(F)cc1)c1ccc(CO)c(Cl)c1,0.017 µM,0.0463 µM
C=CCN(CC=C)C(=O)[C@H](CC)[C@@H]1CC[C@@H](C)[C@@H]([C@H](C)[C@@H](O)[C@@H](C)C(=O)[C@H](CC)C2O[C@]3(C=C[C@@H](O)[C@]4(CC[C@@](C)([C@H]5CC[C@](O)(CC)[C@H](C)O5)O4)O3)[C@H](C)C[C@@H]2C)O1 (stereo partly drawn),1.53 µM,4.84 µM
